Source: PubChem BioAssay (NCI)
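Following 48 hours of exposure in 96-well plates, responses at five concentrations were used to interpolate endpoints linearly. Definition used: TGI = concentration required for complete inhibition of growth.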

What was measured:
Assay in all cases: NCI-60 cell line screen, 48 h
CAKI-1 renal = system: CAKI-1 renal
COLO 205 colon = system: COLO 205 colon
HOP-92 NSCLC = system: HOP-92 NSCLC
K-562 leukemia = system: K-562 leukemia
NCI-H23 lung = system: NCI-H23 lung
SK-OV-3 ovarian = system: SK-OV-3 ovarian
SNB-19 CNS = system: SNB-19 CNS
SR leukemia = system: SR leukemia
SW-620 colon = system: SW-620 colon
T-47D breast = system: T-47D breast
U251 CNS = system: U251 CNS

Compound | TGI (CAKI-1 renal) [µM] | TGI (COLO 205 colon) [µM] | TGI (HOP-92 NSCLC) [µM] | TGI (K-562 leukemia) [µM] | TGI (NCI-H23 lung) [µM] | TGI (SK-OV-3 ovarian) [µM] | TGI (SNB-19 CNS) [µM] | TGI (SR leukemia) [µM] | TGI (SW-620 colon) [µM] | TGI (T-47D breast) [µM] | TGI (U251 CNS) [µM]
ClCCCCCc1c2nc(c(CCCCCCl)c3ccc([nH]3)c(CCCCCCl)c3ccc([nH]3)c(CCCCCCl)c3nc1C=C3)C=C2 | > 100 | > 100 | > 100 | > 100 | > 100 | > 100 | > 100 | > 100 | > 100 | > 100 | > 100
CN1CC2CN(Cc3ccccc3)CCN2c2cccnc21 (configuration not stated) | > 100 | > 100 | > 100 | > 100 | > 100 | > 100 | > 100 | > 100 | > 100 | > 100 | > 100
CC1C(C#N)(C#N)C(C#N)=C(N)C1(Cl)[N+](=O)[O-] (configuration not stated) | 18.6 | 18.5 | 5.91 | > 100 | 35.3 | 32.6 | 35 | 26.5 | 4.46 | 42.7 | 34.4
CN(C)Cc1cc(N=Nc2ccc(Cl)cc2)cc(CN(C)C)c1O | 26.8 | 13.4 | 21.7 | 6.75 | 40.7 | 33.3 | 25.5 | 22.8 | 21.1 | 33.6 | 19.8
CN(C)c1ccc(C=C2C(=O)NC(=S)NC2=O)c2ccccc12 | > 100 | > 100 | 91.4 | > 100 | > 100 | > 100 | > 100 | > 100 | > 100 | > 100 | > 100
COC(=O)CC1c2ccccc2N2C(=O)Cc3c([nH]c4ccccc34)C12 (configuration not stated) | > 100 | > 100 | > 100 | > 100 | > 100 | > 100 | > 100 | > 100 | > 100 | > 100 | > 100
CCN1CN(c2ccccc2)C2(CCN(CC(CC3OCCO3)c3ccc(F)cc3)CC2)C1=O (configuration not stated) | 22.5 | 1.95 | 10.3 | > 87.6 | > 57.3 | > 73.3 | > 92 | > 100 | > 40.4 | 38.9 | 38.9
